# Patent publication US20210255193A1, “LYSINE REACTIVE PROBES AND USES THEREOF” (The Scripps Research Institute, priority 2017, published 2021)
# Assays:
# Test in all cases: competitive isoTOP-ABPP
# Format in all cases: binding
# DCTN2 Dynactin subunit 2 = target: T1, DCTN2 Dynactin subunit 2 (Homo sapiens, UniProt Q13561); settings: for isoTOP-ABPP ratio (R) at liganded lysine Q13561_K175: 50 uM, in vitro, sol, 231
# T1 construct: isoTOP-ABPP experiments performed in cell lysates (in vitro); endogenous in cells; host or cells: soluble proteome of human cancer cell lines (MDA-MB-231, Ramos, Jurkat)
# T1 sequence (Q13561 whole entry): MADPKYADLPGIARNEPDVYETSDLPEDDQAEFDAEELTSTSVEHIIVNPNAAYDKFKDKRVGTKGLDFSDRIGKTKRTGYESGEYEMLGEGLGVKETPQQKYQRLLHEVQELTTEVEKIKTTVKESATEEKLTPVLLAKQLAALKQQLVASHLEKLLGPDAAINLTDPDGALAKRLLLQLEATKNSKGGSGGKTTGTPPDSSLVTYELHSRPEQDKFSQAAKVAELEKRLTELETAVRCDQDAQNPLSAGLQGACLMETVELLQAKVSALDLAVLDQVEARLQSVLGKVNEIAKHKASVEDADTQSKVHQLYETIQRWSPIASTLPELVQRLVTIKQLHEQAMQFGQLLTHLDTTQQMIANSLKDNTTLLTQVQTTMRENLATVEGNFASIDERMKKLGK
# Procedure, shortened: (§1)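 Fragments at 50 μM (activated esters) or 100 μM (guanidinylating agents) were incubated with 0.5 ml lysate before probe labeling. After 0.1 mM STP-alkyne for 1 h, samples were clicked to isotopically distinct TEV tags, and R taken as DMSO-over-compound MS1 peak-area ratio.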
# [1] = target: T2, NAA25 N-alpha-acetyltransferase 25, NatB auxiliary subunit (Homo sapiens, UniProt Q14CX7); settings: for isoTOP-ABPP ratio (R) at liganded lysine Q14CX7_K575: 50 uM, in vitro, sol, 231
# T2 construct: isoTOP-ABPP experiments performed in cell lysates (in vitro); endogenous in cells; host or cells: soluble proteome of human cancer cell lines (MDA-MB-231; Ramos and Jurkat also prepared)
# T2 sequence (Q14CX7 whole entry): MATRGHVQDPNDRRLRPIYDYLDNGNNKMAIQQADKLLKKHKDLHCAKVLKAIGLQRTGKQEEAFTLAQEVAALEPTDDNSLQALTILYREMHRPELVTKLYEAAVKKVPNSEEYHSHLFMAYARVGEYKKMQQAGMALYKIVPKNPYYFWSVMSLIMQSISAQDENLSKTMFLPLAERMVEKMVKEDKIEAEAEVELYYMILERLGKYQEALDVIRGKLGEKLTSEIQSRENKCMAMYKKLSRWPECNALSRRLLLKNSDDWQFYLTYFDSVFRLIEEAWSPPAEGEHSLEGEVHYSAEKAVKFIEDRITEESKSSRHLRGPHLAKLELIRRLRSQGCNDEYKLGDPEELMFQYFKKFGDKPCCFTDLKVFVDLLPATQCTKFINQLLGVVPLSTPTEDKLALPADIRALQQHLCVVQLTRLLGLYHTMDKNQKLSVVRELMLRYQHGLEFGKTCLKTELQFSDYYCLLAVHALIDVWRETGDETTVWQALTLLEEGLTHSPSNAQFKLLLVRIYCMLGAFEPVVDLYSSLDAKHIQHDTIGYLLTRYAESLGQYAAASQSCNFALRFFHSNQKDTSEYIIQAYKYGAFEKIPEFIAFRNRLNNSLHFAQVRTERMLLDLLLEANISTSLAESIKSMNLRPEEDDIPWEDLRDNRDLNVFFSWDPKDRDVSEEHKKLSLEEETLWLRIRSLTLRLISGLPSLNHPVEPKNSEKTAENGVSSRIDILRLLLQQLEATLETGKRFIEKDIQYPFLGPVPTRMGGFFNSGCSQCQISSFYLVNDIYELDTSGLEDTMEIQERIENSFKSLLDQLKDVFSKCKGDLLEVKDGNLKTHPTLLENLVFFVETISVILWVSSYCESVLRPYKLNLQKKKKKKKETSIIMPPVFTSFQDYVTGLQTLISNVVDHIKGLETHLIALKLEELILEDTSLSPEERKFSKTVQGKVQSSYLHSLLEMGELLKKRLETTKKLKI
# Procedure, shortened: as §1
# [2] = target: T3, GOLGB1 Golgin subfamily B member 1 (Homo sapiens, UniProt Q14789); settings: for isoTOP-ABPP ratio (R) at liganded lysine Q14789_K103: 50 uM, in vitro, sol, 231
# T3 construct: isoTOP-ABPP experiments performed in cell lysates (in vitro); endogenous in cells; host or cells: soluble proteome of human cancer cell lines (MDA-MB-231, Ramos, Jurkat)
# T3 sequence (Q14789 whole entry): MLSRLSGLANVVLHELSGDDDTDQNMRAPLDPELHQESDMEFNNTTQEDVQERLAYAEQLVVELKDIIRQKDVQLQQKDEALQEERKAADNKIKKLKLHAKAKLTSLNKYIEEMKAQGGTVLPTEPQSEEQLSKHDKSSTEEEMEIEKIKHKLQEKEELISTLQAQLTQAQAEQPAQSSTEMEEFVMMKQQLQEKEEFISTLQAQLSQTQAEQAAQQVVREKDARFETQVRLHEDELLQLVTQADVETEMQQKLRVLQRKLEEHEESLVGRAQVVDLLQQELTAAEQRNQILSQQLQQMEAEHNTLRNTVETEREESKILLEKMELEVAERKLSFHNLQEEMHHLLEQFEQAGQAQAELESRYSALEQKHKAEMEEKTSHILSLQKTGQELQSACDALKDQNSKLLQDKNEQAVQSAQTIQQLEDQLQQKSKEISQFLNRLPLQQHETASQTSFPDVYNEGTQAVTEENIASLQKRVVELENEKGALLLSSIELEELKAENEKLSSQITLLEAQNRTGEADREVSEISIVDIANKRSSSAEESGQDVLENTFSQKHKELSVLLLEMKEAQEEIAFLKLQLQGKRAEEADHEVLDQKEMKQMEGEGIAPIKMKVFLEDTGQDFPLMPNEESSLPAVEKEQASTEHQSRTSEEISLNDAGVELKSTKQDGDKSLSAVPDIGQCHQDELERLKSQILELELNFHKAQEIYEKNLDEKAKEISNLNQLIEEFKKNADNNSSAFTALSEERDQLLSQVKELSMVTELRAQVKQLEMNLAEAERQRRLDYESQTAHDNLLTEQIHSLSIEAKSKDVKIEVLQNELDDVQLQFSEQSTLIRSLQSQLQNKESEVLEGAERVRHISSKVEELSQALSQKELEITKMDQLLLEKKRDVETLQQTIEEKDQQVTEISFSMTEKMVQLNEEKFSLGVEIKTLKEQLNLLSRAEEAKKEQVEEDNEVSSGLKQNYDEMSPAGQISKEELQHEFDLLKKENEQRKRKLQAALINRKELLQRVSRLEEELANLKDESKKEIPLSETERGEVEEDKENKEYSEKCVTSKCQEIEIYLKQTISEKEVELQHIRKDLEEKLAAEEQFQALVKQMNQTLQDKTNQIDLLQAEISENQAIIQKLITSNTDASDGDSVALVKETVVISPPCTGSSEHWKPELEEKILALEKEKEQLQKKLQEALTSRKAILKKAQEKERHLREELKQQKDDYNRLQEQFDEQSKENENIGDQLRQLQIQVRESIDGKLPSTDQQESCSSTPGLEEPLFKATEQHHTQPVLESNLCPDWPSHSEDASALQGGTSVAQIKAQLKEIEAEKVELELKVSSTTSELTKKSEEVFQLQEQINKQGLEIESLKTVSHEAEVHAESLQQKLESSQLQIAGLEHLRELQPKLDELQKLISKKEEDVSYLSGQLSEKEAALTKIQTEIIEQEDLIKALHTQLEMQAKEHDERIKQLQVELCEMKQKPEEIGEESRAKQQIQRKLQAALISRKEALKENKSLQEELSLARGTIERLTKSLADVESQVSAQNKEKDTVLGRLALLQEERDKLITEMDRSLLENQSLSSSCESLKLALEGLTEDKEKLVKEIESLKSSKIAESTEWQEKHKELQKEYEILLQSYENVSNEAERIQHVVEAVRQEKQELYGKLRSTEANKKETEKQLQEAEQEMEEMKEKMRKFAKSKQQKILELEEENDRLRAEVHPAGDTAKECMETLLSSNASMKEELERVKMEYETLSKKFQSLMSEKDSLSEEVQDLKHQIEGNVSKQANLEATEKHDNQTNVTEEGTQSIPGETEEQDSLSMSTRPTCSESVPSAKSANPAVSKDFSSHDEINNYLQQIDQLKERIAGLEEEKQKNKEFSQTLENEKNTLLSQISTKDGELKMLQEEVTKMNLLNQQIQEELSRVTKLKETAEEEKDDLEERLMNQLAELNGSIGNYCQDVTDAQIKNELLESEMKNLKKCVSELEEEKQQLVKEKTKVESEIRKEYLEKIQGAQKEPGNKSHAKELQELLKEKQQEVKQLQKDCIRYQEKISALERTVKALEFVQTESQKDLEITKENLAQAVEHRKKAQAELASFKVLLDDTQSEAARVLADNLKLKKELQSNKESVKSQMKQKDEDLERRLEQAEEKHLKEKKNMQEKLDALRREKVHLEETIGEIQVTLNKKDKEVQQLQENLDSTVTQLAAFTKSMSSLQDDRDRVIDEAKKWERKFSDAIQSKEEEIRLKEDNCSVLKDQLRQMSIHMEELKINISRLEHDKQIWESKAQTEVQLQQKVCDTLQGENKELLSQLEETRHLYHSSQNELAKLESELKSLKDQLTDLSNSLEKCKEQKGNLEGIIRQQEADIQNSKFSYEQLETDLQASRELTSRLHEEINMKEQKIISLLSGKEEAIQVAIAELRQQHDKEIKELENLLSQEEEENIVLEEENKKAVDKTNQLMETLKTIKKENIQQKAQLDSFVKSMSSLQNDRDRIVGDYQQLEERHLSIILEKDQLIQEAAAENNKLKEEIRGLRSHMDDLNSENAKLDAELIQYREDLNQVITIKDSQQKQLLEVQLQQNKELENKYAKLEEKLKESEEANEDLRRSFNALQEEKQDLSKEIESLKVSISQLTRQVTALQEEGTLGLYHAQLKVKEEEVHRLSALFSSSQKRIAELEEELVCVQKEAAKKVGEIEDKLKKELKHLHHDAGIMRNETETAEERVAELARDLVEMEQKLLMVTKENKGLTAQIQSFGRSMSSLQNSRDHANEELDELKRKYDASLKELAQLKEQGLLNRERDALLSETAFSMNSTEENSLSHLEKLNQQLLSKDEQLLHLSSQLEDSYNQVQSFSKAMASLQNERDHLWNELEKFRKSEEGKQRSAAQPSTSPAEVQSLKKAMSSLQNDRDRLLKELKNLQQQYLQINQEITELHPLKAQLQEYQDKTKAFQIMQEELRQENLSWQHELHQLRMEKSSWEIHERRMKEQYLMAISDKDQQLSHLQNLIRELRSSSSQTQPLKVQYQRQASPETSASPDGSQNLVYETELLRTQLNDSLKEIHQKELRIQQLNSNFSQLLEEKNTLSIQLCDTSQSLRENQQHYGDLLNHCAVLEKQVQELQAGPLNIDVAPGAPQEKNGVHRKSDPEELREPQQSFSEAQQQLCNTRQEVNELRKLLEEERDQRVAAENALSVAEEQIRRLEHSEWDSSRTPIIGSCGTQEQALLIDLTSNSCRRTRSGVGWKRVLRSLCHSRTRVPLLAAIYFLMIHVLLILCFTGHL
# Procedure, shortened: as §1
# [3] = target: T4, MAP2K3 Dual specificity mitogen-activated protein kinase (Homo sapiens, UniProt P46734); settings: for isoTOP-ABPP ratio (R) at liganded lysine P46734_K93: 50 uM, in vitro, sol, 231
# T4 construct: isoTOP-ABPP experiments performed in cell lysates (in vitro); endogenous in cells; host or cells: soluble proteome of human cancer cell lines (MDA-MB-231; Ramos and Jurkat also prepared)
# T4 sequence (P46734 1-347): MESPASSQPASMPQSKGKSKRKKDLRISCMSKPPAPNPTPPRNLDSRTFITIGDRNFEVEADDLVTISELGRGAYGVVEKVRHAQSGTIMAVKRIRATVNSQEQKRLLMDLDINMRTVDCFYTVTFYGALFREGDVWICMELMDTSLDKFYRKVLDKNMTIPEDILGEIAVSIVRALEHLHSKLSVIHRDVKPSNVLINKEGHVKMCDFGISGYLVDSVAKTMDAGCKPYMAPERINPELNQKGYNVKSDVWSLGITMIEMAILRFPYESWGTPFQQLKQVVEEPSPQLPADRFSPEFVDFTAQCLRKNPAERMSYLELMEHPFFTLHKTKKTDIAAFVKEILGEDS
# Procedure, shortened: as §1
# [4] = target: T5, GSTT2B Glutathione S-transferase theta-2B (Homo sapiens, UniProt P0CG30); settings: for isoTOP-ABPP ratio (R) at liganded lysine P0CG30_K53: 50 uM, in vitro, sol, 231
# T5 construct: isoTOP-ABPP experiments performed in cell lysates (in vitro); endogenous in cells; host or cells: MDA-MB-231 soluble lysate
# T5 sequence (P0CG30 1-244): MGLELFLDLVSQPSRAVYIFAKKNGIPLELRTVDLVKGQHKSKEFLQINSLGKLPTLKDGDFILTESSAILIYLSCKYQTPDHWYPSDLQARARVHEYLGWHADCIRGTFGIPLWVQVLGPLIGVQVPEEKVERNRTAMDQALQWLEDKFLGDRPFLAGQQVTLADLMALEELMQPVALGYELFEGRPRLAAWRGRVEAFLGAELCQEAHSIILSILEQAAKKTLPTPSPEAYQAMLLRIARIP
# Procedure, shortened: as §1
# [5] = target: T6, TRMT10C Mitochondrial ribonuclease P protein 1 (Homo sapiens, UniProt Q7L0Y3); settings: for isoTOP-ABPP ratio (R) at liganded lysine Q7L0Y3_K325: 50 uM, in vitro, sol, 231
# T6 construct: isoTOP-ABPP experiments performed in cell lysates (in vitro); endogenous in cells; host or cells: soluble proteome of human cancer cell lines (MDA-MB-231; Ramos and Jurkat also prepared)
# T6 sequence (Q7L0Y3 40-403): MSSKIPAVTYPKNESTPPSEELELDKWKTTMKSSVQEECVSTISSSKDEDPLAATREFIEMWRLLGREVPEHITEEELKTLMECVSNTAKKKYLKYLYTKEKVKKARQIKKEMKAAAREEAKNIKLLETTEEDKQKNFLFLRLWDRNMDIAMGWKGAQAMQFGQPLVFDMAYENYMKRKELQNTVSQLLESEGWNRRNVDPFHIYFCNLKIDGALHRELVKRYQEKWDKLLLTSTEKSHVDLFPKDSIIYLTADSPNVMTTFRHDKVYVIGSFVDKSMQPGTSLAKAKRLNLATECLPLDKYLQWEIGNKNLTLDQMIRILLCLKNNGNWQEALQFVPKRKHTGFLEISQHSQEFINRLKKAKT
# Procedure, shortened: as §1
SMILES,isoTOP-ABPP ratio (R) at liganded lysine Q13561_K175 (DCTN2 Dynactin subunit 2),isoTOP-ABPP ratio (R) at liganded lysine Q14CX7_K575 [1],isoTOP-ABPP ratio (R) at liganded lysine Q14789_K103 [2],isoTOP-ABPP ratio (R) at liganded lysine P46734_K93 [3],isoTOP-ABPP ratio (R) at liganded lysine P0CG30_K53 [4],isoTOP-ABPP ratio (R) at liganded lysine Q7L0Y3_K325 [5],"isoTOP-ABPP ratio, lysine Q13561_K175 (DCTN2 Dynactin subunit 2; 50 uM_231_sol_in vitro)","isoTOP-ABPP ratio, lysine Q14CX7_K575 ([1]; 50 uM_231_sol_in vitro)","isoTOP-ABPP ratio, lysine Q14789_K103 ([2]; 50 uM_231_sol_in vitro)","isoTOP-ABPP ratio, lysine P46734_K93 ([3]; 50 uM_231_sol_in vitro)","isoTOP-ABPP ratio, lysine P0CG30_K53 ([4]; 50 uM_231_sol_in vitro)","isoTOP-ABPP ratio, lysine Q7L0Y3_K325 ([5]; 50 uM_231_sol_in vitro)",further results
"O=C(Oc1ccc([N+](=O)[O-])cc1[N+](=O)[O-])c1ccc2ccccc2n1 [fragment 35, 2,4-Dinitrophenyl quinoline-2-carboxylate]",0.8,0.9,0.9,1.0,4.1,1.0,–,–,–,–,–,–,–
"O=C(Oc1ccc([N+](=O)[O-])cc1[N+](=O)[O-])c1ccc(-c2ccccc2)cc1 [fragment 37, 2,4-Dinitrophenyl [1,1′-biphenyl]-4-carboxylate]",0.9,0.9,0.9,0.7,0.7,1.0,–,–,–,–,–,–,–
"O=C(Oc1ccc([N+](=O)[O-])cc1[N+](=O)[O-])c1ccc(Oc2ccccc2)cc1 [fragment 39, 2,4-Dinitrophenyl 4-phenoxybenzoate]",0.8,1.0,0.9,0.8,0.7,0.9,–,–,–,–,–,–,–
"O=C(Oc1ccc([N+](=O)[O-])cc1[N+](=O)[O-])c1ccccc1Nc1cccc(C(F)(F)F)c1 [fragment 40, 2,4-Dinitrophenyl 2-((3-(trifluoromethyl)phenyl)amino)benzoate]",0.9,0.8,0.9,1.0,0.6,0.9,–,–,–,–,–,–,–
"N#Cc1ccc(C(=O)Oc2ccc([N+](=O)[O-])cc2[N+](=O)[O-])cc1 [fragment 44, 2,4-Dinitrophenyl 4-cyanobenzoate]",–,–,–,–,–,–,0.8,0.8,0.9,0.8,0.6,1.3,–
"O=C(CCc1ccc2c(c1)OCO2)Oc1ccc([N+](=O)[O-])cc1[N+](=O)[O-] [fragment 45, 2,4-Dinitrophenyl 3-(benzo[d][1,3]dioxol-5-yl)propanoate]",–,–,–,–,–,–,1.6,1.2,1.0,0.9,0.5,1.0,–
"COC(=O)NC(=NC(=O)OCC1c2ccccc2-c2ccccc21)n1cccn1 [fragment 49, N-Methoxycarbonyl-N′-9-fluorenylmethoxycarbonyl-pyrazole-1-carboxamidine]",–,–,–,–,–,–,–,–,–,–,–,–,"isoTOP-ABPP ratio, lysine Q13561_K175 (DCTN2 Dynactin subunit 2; 100 uM_231_sol_in vitro): 1.5; isoTOP-ABPP ratio, lysine Q14CX7_K575 ([1]; 100 uM_231_sol_in vitro): 1.1; isoTOP-ABPP ratio, lysine Q14789_K103 ([2]; 100 uM_231_sol_in vitro): 1.8; isoTOP-ABPP ratio, lysine P46734_K93 ([3]; 100 uM_231_sol_in vitro): 6.8; isoTOP-ABPP ratio, lysine P0CG30_K53 ([4]; 100 uM_231_sol_in vitro): 3.1; isoTOP-ABPP ratio, lysine Q7L0Y3_K325 ([5]; 100 uM_231_sol_in vitro): 1.2"
"NC(=O)c1cc(C(F)(F)F)cc(C(F)(F)F)c1 [fragment 51, reference compound]",–,–,–,–,–,–,0.9,1.0,0.9,1.0,0.7,0.9,–
